The results in this text go back to ChEMBL document CHEMBL1146285, “Trimethylsilylpyrazoles as novel inhibitors of p38 MAP kinase: a new use of silicon bioisosteres in medicinal chemistry” (Bioorg Med Chem Lett, 2007).

Data set [1] is described as follows: Partition coefficient, log P of the compound. The data set is classed as physicochemical. The conditions noted are these: octanol/water.
Data set [2] can be described thus: Distribution coefficient, log D at pH 6.0. The class given is physicochemical. The conditions noted are these: octanol/water.
The nature of data set [3]: Distribution coefficient, log D at pH 6.5. The class given is physicochemical. The following applies: octanol/water.
The nature of data set [4]: Distribution coefficient, log D at pH 7.4. The class given is physicochemical. The following applies: octanol/water.
The nature of data set [5]: Metabolic stability in human liver microsomes at 1 uM after 40 mins. The data set is classed as ADME, Microsome. The conditions noted are these: read-out: Stability. For orientation: Liver microsomes are vesicles of endoplasmic reticulum, rich in cytochrome P450 enzymes.
The subject of data set [6] is Mus musculus. Description: Suppression of lipopolysaccharide-induced TNFalpha release in mouse at 10 mg/kg, po after 30 mins. The class given is functional.
Data set [7] has as its system Mus musculus. Description: Suppression of lipopolysaccharide-induced TNFalpha release in mouse at 10 mg/kg, po after 120 mins. The class given is functional.

Regarding `Cc1ccc(-n2nc(C(C)(C)C)cc2NC(=O)Nc2ccc(OCCN3CCOCC3)c3ccccc23)cc1` [DORAMAPIMOD], the log partition coefficient (logP) in data set [1] came out at 5.2. Besides, the logD stood at 4.6 in data set [2], 4.9 in data set [3] and 5.1 in data set [4]. The remaining at 40 min, 1 µM in data set [5] is 79%. Further, the Activity in data set [6] was -41%; in data set [7] it was -40%.

As usually defined, the logP is a log measure of how a compound divides between an organic and an aqueous phase. A lower logP goes with a more hydrophilic compound. As a reminder, the logD is the decadic logarithm of the distribution of all forms, ionised or not, between an organic phase and buffer at a given pH. Higher therefore signals a more lipophilic compound.
